“And” between values parts separate entries of the source, which are not always exact repeats. Equal values may be shown once. Toxic doses and inconclusive results are not listed. How the source made its calls: active means survival T/C of 150% or more; inactive means T/C below 125% in these data.
System: BDF1 mice, P388 leukemia ip, median survival T/C
Test: NCI In Vivo Anticancer Drug Screen. Data for tumor model P388 Leukemia (intraperitoneal) in B6D2F1 (BDF1) mice
Conditions: endpoint: median survival time, higher = longer survival
Outline: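 In tumour-bearing mice, survival after compound treatment is set against the vehicle group and given as a quotient.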

[1] = dose: 50.0 mg/kg/injection, schedule: Q04DX003 (ip), vehicle: saline
[2] = dose: 100.0 mg/kg/injection, schedule: Q04DX003 (ip), vehicle: saline
[3] = dose: 12.5 mg/kg/injection, schedule: Q01DX009 (ip), vehicle: saline with Tween-80
[4] = dose: 25.0 mg/kg/injection, schedule: Q01DX009 (ip), vehicle: saline with Tween-80
[5] = dose: 50.0 mg/kg/injection, schedule: Q01DX009 (ip), vehicle: saline with Tween-80
[6] = dose: 50.0 mg/kg/injection, schedule: Q01DX009 (ip), vehicle: Klucel (hydroxypropylcellulose) (HPC)
[7] = dose: 100.0 mg/kg/injection, schedule: Q01DX009 (ip), vehicle: Klucel (hydroxypropylcellulose) (HPC)
[8] = dose: 100.0 mg/kg/injection, schedule: Q01DX009 (ip), vehicle: saline with Tween-80
[9] = dose: 200.0 mg/kg/injection, schedule: Q01DX009 (ip), vehicle: saline with Tween-80
[10] = dose: 400.0 mg/kg/injection, schedule: Q01DX009 (ip), vehicle: saline with Tween-80
[11] = dose: 100.0 mg/kg/injection, schedule: Q04DX003 (ip), vehicle: saline with Tween-80

Measured: T/C

OCC1OC(n2cc(Cl)c3cncnc32)C(O)C1O (stereo not given)
inactive: [1] 100 % of control | [2] 90 % of control

CC(CC(O)C(C)(C)C)C(C)(C)C (stereo not given)
inactive: [3] 117 % of control | [4] 110 % of control | [5] 117 % of control

O=S(=O)(O)c1ccc(-c2ccccc2)cc1
inactive: dose: 25.0 mg/kg/injection, schedule: Q01DX009 (ip), vehicle: Klucel (hydroxypropylcellulose) (HPC) 95 % of control | [6] 87 % of control | [7] 95 % of control | dose: 100.0 mg/kg/injection, schedule: Q04DX003 (ip), vehicle: Klucel (hydroxypropylcellulose) (HPC) 88 % of control

COc1cc(OC)c(C(=O)CCc2ccccc2)c(O)c1Cc1ccccc1O
inactive: dose: 0.5 mg/kg/injection, schedule: Q01DX009 (ip), vehicle: saline 106 % of control | dose: 2.0 mg/kg/injection, schedule: Q01DX009 (ip), vehicle: saline 113 % of control | dose: 4.0 mg/kg/injection, schedule: Q01DX009 (ip), vehicle: saline with Tween-80 120 % of control | dose: 4.0 mg/kg/injection, schedule: Q01DX009 (ip), vehicle: saline 103 % of control | dose: 5.9 mg/kg/injection, schedule: Q01DX009 (ip), vehicle: saline with Tween-80 103 % of control | dose: 13.0 mg/kg/injection, schedule: Q01DX009 (ip), vehicle: saline with Tween-80 103 % of control

CC(C)OC(=O)Nc1ccccc1Cl
inactive: [1] 95 % of control

C[C@]12C=CC(=O)C=C1CC[C@@H]1[C@@H]2C(=O)C[C@@]2(C)[C@H]1CC[C@]2(O)C(=O)CO
inactive: dose: 0.8 mg/kg/injection, schedule: Q01DX009 (ip), vehicle: carboxymethylcellulose (CMC) 90 % of control | dose: 1.6 mg/kg/injection, schedule: Q01DX009 (ip), vehicle: carboxymethylcellulose (CMC) 99 % of control | dose: 3.12 mg/kg/injection, schedule: Q01DX009 (ip), vehicle: carboxymethylcellulose (CMC) 99 % of control | dose: 6.25 mg/kg/injection, schedule: Q01DX009 (ip), vehicle: carboxymethylcellulose (CMC) 89 % of control and 103 % of control | dose: 6.25 mg/kg/injection, schedule: Q03HX008 (ip), vehicle: saline 107 % of control | dose: 6.25 mg/kg/injection, schedule: Q03HX016 (ip), vehicle: saline 100 % of control | dose: 6.25 mg/kg/injection, schedule: Q03HX024 (ip), vehicle: saline 100 % of control | dose: 12.5 mg/kg/injection, schedule: Q01DX009 (ip), vehicle: carboxymethylcellulose (CMC) 87 % of control and 89 % of control | dose: 12.5 mg/kg/injection, schedule: Q03HX008 (ip), vehicle: saline 100 % of control | dose: 12.5 mg/kg/injection, schedule: Q03HX016 (ip), vehicle: saline 100 % of control | dose: 12.5 mg/kg/injection, schedule: Q03HX024 (ip), vehicle: saline 87 % of control | dose: 25.0 mg/kg/injection, schedule: Q03HX008 (ip), vehicle: saline 100 % of control | dose: 25.0 mg/kg/injection, schedule: Q03HX016 (ip), vehicle: saline 100 % of control | dose: 25.0 mg/kg/injection, schedule: Q03HX024 (ip), vehicle: saline 87 % of control | dose: 44.0 mg/kg/injection, schedule: Q04DX003 (sc), vehicle: Klucel (hydroxypropylcellulose) (HPC) 113 % of control | dose: 50.0 mg/kg/injection, schedule: Q01DX001 (ip), vehicle: saline 107 % of control | dose: 50.0 mg/kg/injection, schedule: Q01DX009 (ip), vehicle: carboxymethylcellulose (CMC) 90 % of control and 93 % of control | dose: 50.0 mg/kg/injection, schedule: Q03HX008 (ip), vehicle: saline 100 % of control | dose: 50.0 mg/kg/injection, schedule: Q03HX016 (ip), vehicle: saline 107 % of control | dose: 50.0 mg/kg/injection, schedule: Q03HX024 (ip), vehicle: saline 87 % of control | [1] 93 % of control | dose: 50.0 mg/kg/injection, schedule: Q08DX002 (ip), vehicle: saline 87 % of control | dose: 67.0 mg/kg/injection, schedule: Q04DX003 (sc), vehicle: Klucel (hydroxypropylcellulose) (HPC) 114 % of control | dose: 100.0 mg/kg/injection, schedule: Q01DX001 (ip), vehicle: saline 114 % of control | dose: 100.0 mg/kg/injection, schedule: Q03HX008 (ip), vehicle: saline 100 % of control | dose: 100.0 mg/kg/injection, schedule: Q03HX016 (ip), vehicle: saline 114 % of control | dose: 100.0 mg/kg/injection, schedule: Q03HX024 (ip), vehicle: saline 87 % of control | [2] 106 % of control | dose: 100.0 mg/kg/injection, schedule: Q04DX003 (sc), vehicle: Klucel (hydroxypropylcellulose) (HPC) 113 % of control | dose: 100.0 mg/kg/injection, schedule: Q08DX002 (ip), vehicle: saline 87 % of control | dose: 200.0 mg/kg/injection, schedule: Q01DX001 (ip), vehicle: saline 114 % of control | dose: 200.0 mg/kg/injection, schedule: Q04DX003 (ip), vehicle: saline 100 % of control | dose: 200.0 mg/kg/injection, schedule: Q08DX002 (ip), vehicle: saline 100 % of control | dose: 400.0 mg/kg/injection, schedule: Q01DX001 (ip), vehicle: saline 121 % of control | dose: 400.0 mg/kg/injection, schedule: Q04DX003 (ip), vehicle: saline 106 % of control | dose: 400.0 mg/kg/injection, schedule: Q08DX002 (ip), vehicle: saline 87 % of control | dose: 800.0 mg/kg/injection, schedule: Q01DX001 (ip), vehicle: saline 121 % of control | dose: 800.0 mg/kg/injection, schedule: Q04DX003 (ip), vehicle: saline 106 % of control | dose: 800.0 mg/kg/injection, schedule: Q08DX002 (ip), vehicle: saline 100 % of control

c1ccc(Sc2cccc3ccccc23)cc1
inactive: [8] 100 % of control | [9] 104 % of control | [10] 104 % of control

O=C(COc1cccc(Cl)c1Cl)Nc1cccnc1
inactive: dose: 37.5 mg/kg/injection, schedule: Q01DX001 (ip), vehicle: saline with Tween-80 100 % of control | dose: 75.0 mg/kg/injection, schedule: Q01DX001 (ip), vehicle: saline with Tween-80 104 % of control | dose: 150.0 mg/kg/injection, schedule: Q01DX001 (ip), vehicle: saline with Tween-80 100 % of control

CCCCCCC(C)[N+](C)(C)C (stereo not given)
inactive: dose: 6.25 mg/kg/injection, schedule: Q04DX003 (ip), vehicle: saline 116 % of control | dose: 12.5 mg/kg/injection, schedule: Q04DX003 (ip), vehicle: saline 100 % of control | dose: 25.0 mg/kg/injection, schedule: Q04DX003 (ip), vehicle: saline 113 % of control

C/C(Cc1ccccc1)=N/N(C)C
inactive: dose: 25.0 mg/kg/injection, schedule: Q04DX003 (ip), vehicle: saline with Tween-80 108 % of control | dose: 50.0 mg/kg/injection, schedule: Q04DX003 (ip), vehicle: saline with Tween-80 100 % of control | [11] 104 % of control

Brc1ccc(-c2csc(Nc3nc(-c4ccc(Br)cc4)cs3)n2)cc1
inactive: [11] 90 % of control | dose: 200.0 mg/kg/injection, schedule: Q04DX003 (ip), vehicle: saline with Tween-80 90 % of control | dose: 400.0 mg/kg/injection, schedule: Q04DX003 (ip), vehicle: saline with Tween-80 95 % of control

O=C(O)COc1c(Br)cc(Br)cc1Br
inactive: [6] 90 % of control | [7] 90 % of control | dose: 200.0 mg/kg/injection, schedule: Q01DX009 (ip), vehicle: Klucel (hydroxypropylcellulose) (HPC) 110 % of control

CCOC(=O)/C(C#N)=C/C=C1C=CN(C)C=C1
inactive: [5] 86 % of control | [8] 105 % of control | [9] 116 % of control

Nc1ccccc1.[C-]#[O+].[C-]#[O+].[C-]#[O+].[C-]#[O+].[C-]#[O+].[Cr]
inactive: dose: 2.5 mg/kg/injection, schedule: Q01DX009 (ip), vehicle: saline 91 % of control | dose: 5.0 mg/kg/injection, schedule: Q01DX009 (ip), vehicle: saline 101 % of control

CSc1ccc(N=C=C(c2ccccc2)c2ccccc2)cc1
inactive: dose: 6.25 mg/kg/injection, schedule: Q01DX009 (ip), vehicle: saline with Tween-80 95 % of control | [3] 90 % of control | [4] 90 % of control

CN(C)C(=O)Nc1ccc(Cc2ccc(NC(=O)N(C)C)cc2)cc1
inactive: [5] 96 % of control | [8] 99 % of control | [9] 108 % of control | [10] 99 % of control

Source: PubChem BioAssay AID328 (DTP/NCI, 2004)
